Counter-ions that a name gives are not always drawn.
System: Danio rerio larvae Tg(actc1b:ZsGreen-LC3), 3 dpf
Experiment: LC3 puncta relative area vs vehicle (mean) (log2 fold change); higher = more autophagy
Conditions: treatment time 16 h
Method: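 Transgenic ZsGreen-LC3 zebrafish larvae (2 dpf) were treated for 16 h with natural bioactives at 10, 50, 100 or 250 µM. Skeletal-muscle LC3 puncta area was measured by high-content imaging with or without 4 h of 100 mM NH4Cl, normalised to vehicle, and reported as the mean log2 fold change over 4–21 larvae.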

Row | Compound | LC3 puncta (log2) (NH4Cl: + NH4Cl, 10 µM) | LC3 puncta (log2) (NH4Cl: + NH4Cl, 50 µM) | LC3 puncta (log2) (NH4Cl: + NH4Cl, 100 µM) | LC3 puncta (log2) (NH4Cl: + NH4Cl, 250 µM) | LC3 puncta (log2) (NH4Cl: - NH4Cl, 10 µM) | LC3 puncta (log2) (NH4Cl: - NH4Cl, 50 µM) | LC3 puncta (log2) (NH4Cl: - NH4Cl, 100 µM) | LC3 puncta (log2) (NH4Cl: - NH4Cl, 250 µM)
1 | CC(C)CC(O)C(=O)O (stereo not given) [2-Hydroxyisocaproic acid] | 0.569 | 1.04 | 1.46 | 1.21 | -0.489 | 0.415 | 0.346 | 0.416
2 | CCC(O)CC(=O)O (stereo not given) [b-Hydroxyvalerate] | 0.933 | 0.6 | 1.08 | 1.21 | 0.353 | 0.272 | 0.404 | 0.37
3 | CCCCCCCCCC(=O)[O-].[Na+] [Sodium decanoate] | 0.524 | -0.00931 | -1.55 | -0.382 | 0.285 | -0.0288 | -0.846 | 0.298
4 | CC(O)C(=O)O (stereo not given) [Lactic acid] | 0.558 | 0.374 | 0.472 | 0.345 | 0.287 | -0.151 | -0.219 | 0.079
5 | O=C(O)c1ccccc1 [Benzoic acid] | -0.0668 | 0.917 | 1.5 | – | 0.129 | 0.383 | 1.14 | –
6 | CCCCCCCC(=O)O [Octanoic acid] | 0.0521 | 0.079 | 0.553 | – | -0.257 | 0.356 | 0.0532 | –
7 | CCCC(=O)[O-].[Na+] [Butyric acid sodium salt] | 0.256 | 0.65 | 0.615 | 0.513 | 0.036 | 0.362 | 0.26 | -0.0615
8 | Oc1cc(O)c2c(c1)O[C@H](c1ccc(O)c(O)c1)[C@H](O)C2 [(-)-Epicatechin] | 0.954 | 0.317 | 0.232 | 0.0319 | -0.000662 | -0.156 | -0.539 | -0.492
9 | CCCCCCCC(=O)[O-].[Na+] [Sodium octanoate] | 0.613 | 0.427 | 0.342 | 0.503 | -0.0249 | 0.344 | 0.217 | 0.272
10 | OCC(O)CO [Glycerol] | 0.468 | -0.233 | 0.425 | 0.628 | 0.0358 | -0.0173 | 0.118 | 0.027
11 | C[n+]1cccc(C(=O)[O-])c1 [Trigonelline] | 0.266 | 0.266 | 0.112 | – | 0.202 | 0.619 | 0.435 | -0.0876
12 | Cc1ccc(C(C)C)c(O)c1 [Thymol] | 0.947 | 1.4 | 1.68 | 1.55 | 0.0897 | 0.575 | 0.869 | 1.65
13 | O=C(O)CC(O)C(=O)O (stereo not given) [Malic acid] | 0.364 | 0.607 | 0.449 | 0.554 | -0.0981 | -0.0981 | -0.0374 | -0.0364
14 | O=C(O)CCC(=O)O [Succinic acid] | 0.752 | 0.769 | 0.297 | 0.806 | 0.044 | 0.06 | -0.705 | -0.0293
15 | CCOC(=O)CC(O)(CC(=O)OCC)C(=O)OCC [Triethyl citrate] | 0.559 | 0.524 | 1.06 | 1.44 | 0.227 | 0.572 | 0.551 | 0.957
16 | N[C@@H](CCC(=O)O)C(=O)O [L-glutamic acid] | 0.755 | 0.239 | 0.876 | 0.997 | 0.144 | 0.165 | 0.702 | 0.322
17 | C/C1=C2N=C(/C=C3N=C(/C(C)=C4\[N-]C(C(CC(N)=O)C4(C)CCC(=O)NCC(C)OP(=O)([O-])OC4C(CO)OC(n5cnc6cc(C)c(C)cc65)C4O)C4(C)N=C1C(CCC(N)=O)C4(C)CC(N)=O)C(CCC(N)=O)C\3(C)C)C(CCC(N)=O)C/2(C)CC(N)=O.[CH3-].[Co+3] (stereo not given) [Methylcobalamin] | 0.507 | 0.557 | 0.386 | -0.454 | -0.125 | -0.236 | 0.239 | -0.503
18 | N[C@H]1C(O)O[C@H](CO)[C@@H](O)[C@@H]1O (stereo partly drawn) [D-glucosamine] | 0.082 | 0.412 | 0.454 | 0.285 | 0.0603 | 0.0831 | 0.218 | 0.352
19 | CCCCCCCC/C=C\CCCCCCCCCCCCCC(=O)O [Nervonic acid] | 0.639 | 0.888 | 1.09 | 0.707 | -0.0528 | 0.0416 | 0.723 | 0.0463
20 | O=C(O[C@@H]1Cc2c(O)cc(O)cc2O[C@@H]1c1ccc(O)c(O)c1)c1cc(O)c(O)c(O)c1 [(-)-Epicatechin gallate] | 0.221 | 0.493 | 0.661 | – | -0.0294 | 0.253 | 0.0524 | –
21 | CCCCC(=O)[O-].[Na+] [Valeric acid sodium salt] | -0.472 | -0.35 | -0.0575 | -0.14 | -0.132 | 0.109 | -0.272 | -0.191
22 | C[C@@H](CO)C(=O)O [Sodium β-hydroxyisobutyrate] | 0.761 | 0.505 | 0.553 | 0.277 | 0.14 | -0.573 | -0.233 | -0.327
23 | CCCCCCCCCCCCCCCC(=O)O [Palmitic acid] | 0.572 | 0.0741 | 0.0454 | 0.114 | 0.561 | -0.136 | -0.712 | -0.593
24 | C[C@@H](O)CC(=O)O [(R)-3-Hydroxybutyric acid] | 0.877 | 0.689 | 0.929 | 1.01 | 0.111 | -0.78 | 0.265 | 0.324

Reference: the supplement of paper PMC12532568
